Reference: the NIST ThermoML archive (doi:10.1016/j.jct.2009.06.022)
Numbers after ± are expanded uncertainties.

Columns and labels:
[1] = Crystal; DTA
[2] = molar enthalpy of vaporization or sublimation; settings: 298.15 K; Crystal; Static calorimetry
[3] = Molar enthalpy of transition or fusion; settings: Crystal; DSC

SMILES | Normal melting temperature [1] | molar enthalpy [2] | Molar enthalpy of transition or fusion [3]
O=C1CC(c2ccccc2)Oc2ccccc21 (stereo unspecified) [2,3-dihydroflavone] | 76.34 ± 0.44 °C | 25.6 ± 1.1 kcal/mol | 5.03 ± 0.139 kcal/mol
O=c1cc(-c2ccccc2)oc2ccccc12 [flavone] | 96.74 ± 0.44 °C | 25.9 ± 0.813 kcal/mol | 4.86 ± 0.122 kcal/mol
